Assay results as given in patent US10640545B2 (THE GOVERNORS OF THE UNIVERSITY OF ALBERTA, priority 2017, dated 2020).
Where a SMILES comes first, the peptide text is derived from it. [ ]: non-standard residue; d: D form. Phe(4-Br) = N[C@@H](Cc1ccc(Br)cc1)C(=O)O; NMeL = CN[C@@H](CC(C)C)C(=O)O; Nle = CCCC[C@H](N)C(=O)O; Aib = CC(C)(N)C(=O)O

How the values were obtained:
[1] = molecular target: Recombinant Human Neprilysin (Homo sapiens, UniProt P08473); assay: Neprilysin qualitative cleavage assay (MALDI-TOF); details: rhNEP 2 ng/μL, 37° C., first degradation products by MALDI-TOF
Protocol: Native apelin-17 (2) and apelin peptides 5, 54, 56, 57, 58 and 59 were dissolved in Milli-Q water (1 mM). Recombinant Human Neprilysin (rhNEP, Sino Biological) was reconstituted in Tris buffer (100 mM Tris, 100 mM NaCl, 10 mM ZnCl2, pH 7.5). To initiate the assays, rhNEP was diluted in Tris buffer to a 2 ng/μL final concentration, and pre-incubated at 37° C. for 10 minutes prior to the addition of 5 μL of apelin peptide (1 mM). Aliquots (1 μL) were taken at 1, 2, 4, 6, 12, 24, 36, and 48 hours and analyzed with MALDI-TOF mass spectrometry to qualitatively determine the time point at which degradation products could be observed.

KLKB1 = KLKB1 (Homo sapiens, UniProt P03952); assay: In vitro KLKB1 stability (half-life); type: in vitro ADME; set-up: purchased Novoprotein; details: rhKLKB1, 37° C.
anesthetized mice = assay: Blood pressure assay in anesthetized mice; type: in vivo; details: 1.4 μM/kg body weight injected, SBP, DBP, MABP
Outline: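 Mice were anaesthetized with 1.5% isoflurane/oxygen and kept at 36 °C. Peptide (1.4 μM/kg body weight) or saline was injected via the right jugular vein. Arterial pressure and heart rate were recorded continuously through a catheter in the aorta via the right carotid artery over 60 min and reported as SBP, DBP, MABP and HR.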

in vitro = details: human, plasma
Ldlr^−/− mice = assay: Angiotensin II-induced abdominal aortic aneurysm; type: in vivo
Protocol: Experimental Animals and Protocols. Male LDL receptor deficient (Ldlr^−/−) mice were generated and bred in C57BL/6 background. All animal experiments were carried out in accordance with the Canadian Council on Animal Care Guidelines, and animal protocols were reviewed and approved by the Animal Care and Use Committee at the University of Alberta.
Alzet micro-osmotic pump (model 1002 or 1004; Durect Co.) was implanted subcutaneously at the dorsum of the neck to infuse Ang II (1.5 mg/kg^−1d^−1) or vehicle (saline) for 28 days in high fat fed Ldlr^−/− mice.
After 4 weeks of Ang II or saline infusion, mice underwent whole body perfuse-fixation, via the left ventricle, with 10% buffered formalin (80 mmHg, 20 min). […] Collagen positive area was quantified by the morphometric analysis using the Metamorph Basic (version 7.7.0.0) software. In situ DNA fragmentation was detected in 5-μm thick FFPE sections of aorta using the commercially available terminal deoxynucleotidyl transferase-mediated dUTP nick-end labeling (TUNEL) assay kit according to manufacturer's instructions (Invitrogen) as previously described. […] Thickness of the medial layer of the aorta was measured in calibrated images as the mean distance between the external elastin lamella and the internal elastin lamella from 8 randomly selected fields of the cross-section of an aorta using the Metamorph Basic software (version 7.7.0). […]

Chain of KLKB1 (P03952 20-638): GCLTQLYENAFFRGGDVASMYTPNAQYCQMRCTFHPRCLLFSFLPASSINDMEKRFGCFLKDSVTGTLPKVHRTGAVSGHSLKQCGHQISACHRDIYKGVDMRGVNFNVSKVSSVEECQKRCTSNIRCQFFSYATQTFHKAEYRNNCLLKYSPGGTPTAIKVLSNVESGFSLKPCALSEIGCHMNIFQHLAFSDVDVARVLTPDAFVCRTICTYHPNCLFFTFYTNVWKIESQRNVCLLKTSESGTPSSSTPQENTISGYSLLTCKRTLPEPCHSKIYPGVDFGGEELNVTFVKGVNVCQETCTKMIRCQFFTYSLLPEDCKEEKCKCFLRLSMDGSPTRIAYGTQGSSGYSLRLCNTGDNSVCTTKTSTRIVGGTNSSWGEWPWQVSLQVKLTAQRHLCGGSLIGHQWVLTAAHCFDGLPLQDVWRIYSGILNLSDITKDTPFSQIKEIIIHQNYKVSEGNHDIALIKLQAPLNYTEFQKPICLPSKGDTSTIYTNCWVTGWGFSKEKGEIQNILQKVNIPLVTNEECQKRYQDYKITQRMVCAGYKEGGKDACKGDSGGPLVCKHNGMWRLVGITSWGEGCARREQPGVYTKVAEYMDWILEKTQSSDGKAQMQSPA
Chain of Recombinant Human Neprilysin (P08473 whole entry): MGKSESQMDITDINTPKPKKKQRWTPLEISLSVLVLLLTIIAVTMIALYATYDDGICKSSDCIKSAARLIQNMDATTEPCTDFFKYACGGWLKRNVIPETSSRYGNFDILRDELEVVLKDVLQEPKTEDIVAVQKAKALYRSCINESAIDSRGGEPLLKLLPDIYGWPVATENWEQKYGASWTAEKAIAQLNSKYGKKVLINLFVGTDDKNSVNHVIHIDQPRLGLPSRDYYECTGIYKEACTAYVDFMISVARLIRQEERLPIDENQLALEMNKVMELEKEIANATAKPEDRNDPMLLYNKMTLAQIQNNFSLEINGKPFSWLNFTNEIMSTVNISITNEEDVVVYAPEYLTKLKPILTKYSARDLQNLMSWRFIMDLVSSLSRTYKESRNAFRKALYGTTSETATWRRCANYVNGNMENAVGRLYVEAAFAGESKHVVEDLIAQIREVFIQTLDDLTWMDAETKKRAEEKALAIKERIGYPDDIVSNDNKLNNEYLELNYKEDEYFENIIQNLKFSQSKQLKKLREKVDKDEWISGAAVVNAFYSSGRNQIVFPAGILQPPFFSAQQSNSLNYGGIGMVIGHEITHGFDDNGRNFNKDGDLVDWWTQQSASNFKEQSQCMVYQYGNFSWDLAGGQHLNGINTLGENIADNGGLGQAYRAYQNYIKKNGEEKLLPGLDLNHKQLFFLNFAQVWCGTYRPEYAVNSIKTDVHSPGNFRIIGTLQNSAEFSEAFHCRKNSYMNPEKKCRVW

Structure (SMILES) | Degradation Onset Timepoint with NEP [1] | t1/2 (rhKLKB1, h) (KLKB1) | blood pressure lowering (hypotensive) effect (anesthetized mice) | remaining at 0.5 h, 80 µM (in vitro) | remaining at 1 h, 80 µM (in vitro) | oxidative stress (DHE fluorescence and NADPH oxidase activity) (Ldlr^−/− mice; aorta of Ldlr^−/− mice, Ang II + peptide) | formation of abdominal aortic aneurysm (Ldlr^−/− mice; high fat fed Ldlr^−/− mice, Ang II 1.5 mg/kg/d 28 days, peptide 3 mg/kg/d intraperitoneal 28 days)
CSCC[C@H](NC(=O)[C@@H]1CCCN1C(=O)CNC(=O)[C@H](CCCCN)NC(=O)[C@H](Cc1cnc[nH]1)NC(=O)[C@H](CO)NC(=O)[C@H](CC(C)C)NC(=O)[C@H](CCCNC(=N)N)NC(=O)[C@@H]1CCCN1C(=O)[C@H](CCCNC(=N)N)NC(=O)[C@H](CCC(N)=O)NC(=O)[C@H](CCCNC(=N)N)NC(=O)[C@H](CCCNC(=N)N)NC(=O)[C@H](Cc1ccccc1)NC(=O)[C@@H](N)CCCCN)C(=O)N1CCC[C@H]1C(=O)N[C@@H](Cc1ccccc1)C(=O)O [Peptide 2, reference compound] | <30 min | 0.4 h | – | – | – | – | –
CCCC[C@H](NC(=O)[C@@H]1CCCN1C(=O)CNC(=O)[C@H](CCCCN)NC(=O)[C@H](Cc1c[nH]cn1)NC(=O)[C@H](CO)NC(=O)[C@H](CC(C)C)N(C)C(=O)[C@H](CCCNC(=N)N)NC(=O)[C@@H]1CCCN1C(=O)[C@H](CCCNC(=N)N)NC(=O)[C@H](CCC(N)=O)NC(=O)[C@H](CCCNC(=N)N)NC(=O)[C@H](CCCNC(=N)N)NC(=O)[C@H](Cc1ccccc1)NC(=O)[C@@H](N)CCCCN)C(=O)NC(C)(C)C(=O)N[C@@H](Cc1ccc(Br)cc1)C(=O)O [Peptide 11] (H-KFRRQRPR[NMeL]SHKGP[Nle][Aib][Phe(4-Br)]-OH; C-terminus assumed) | – | – | potent hypotensive activity that rivaled or bested that of native 2 or A2 variant 5 | 49 ± 10% | 47 ± 7% | suppression of oxidative stress | markedly prevented the formation of abdominal aortic aneurysm
